Entries after “also recorded” stand apart in the source; their conditions may differ.
Experiments:
DRG neurons = conditions: cited from earlier work
PIP5K1C and PIP4K2C = conditions: for PIP5K1C and PIP4K2C; cited from earlier work
pain hypersensitivity = conditions: injected intrathecally, rodent models of chronic pain; listed as UNC3230; cited from earlier work
PIP5K1C = PIP5K1C (Homo sapiens, UniProt O60331); assay: ATP competition studies using the mobility shift assay; type: biochemical; conditions: read-out: average Ki; two independent ATP competition studies
Sequence of PIP5K1C (O60331 whole entry): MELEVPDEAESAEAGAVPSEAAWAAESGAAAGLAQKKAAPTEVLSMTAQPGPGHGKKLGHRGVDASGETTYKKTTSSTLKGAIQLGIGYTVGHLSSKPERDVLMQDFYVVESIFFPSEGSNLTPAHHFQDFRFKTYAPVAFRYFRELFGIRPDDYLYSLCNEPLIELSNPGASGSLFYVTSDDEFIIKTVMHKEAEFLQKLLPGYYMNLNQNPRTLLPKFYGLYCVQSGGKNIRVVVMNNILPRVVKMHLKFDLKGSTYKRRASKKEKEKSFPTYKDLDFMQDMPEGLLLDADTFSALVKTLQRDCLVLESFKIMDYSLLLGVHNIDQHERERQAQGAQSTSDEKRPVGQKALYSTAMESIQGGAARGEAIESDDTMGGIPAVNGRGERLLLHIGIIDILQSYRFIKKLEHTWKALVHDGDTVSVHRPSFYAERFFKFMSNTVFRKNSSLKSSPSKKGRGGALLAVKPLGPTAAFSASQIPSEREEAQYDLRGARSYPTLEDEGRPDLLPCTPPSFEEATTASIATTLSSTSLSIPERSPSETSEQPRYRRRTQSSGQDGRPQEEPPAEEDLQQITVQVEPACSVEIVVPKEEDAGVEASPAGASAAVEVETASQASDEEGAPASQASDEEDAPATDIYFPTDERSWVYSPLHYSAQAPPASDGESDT

Ki (PIP5K1C): 23 nM
SMILES: NC(=O)c1nc(Nc2ccccc2)sc1NC(=O)C1CCCCC1 [Compound 1]
effect on PIP2 in DRG neurons (DRG neurons): reduced PIP2
selectivity (PIP5K1C and PIP4K2C): highly selective
effect on pain hypersensitivity / nociceptive sensitization (pain hypersensitivity): reduce nociceptive sensitization; also recorded: attenuated pain hypersensitivity

Reference: article PMC4610143 (Journal of biomolecular screening, 2014)
